Measured values as given in patent US10407467B2, “Polymyxin derivatives and their use in combination therapy together with different antibiotics” (priority 2013, dated 2019).
Counter-ions that a name gives are not always drawn. Like-named read-outs stand apart in the source and are kept apart here. Numbered stars: 1 amine (or outer) side, 2 acyl side, 3 side chain; on linkers, the order of the positions; unused ones are H or OH. Bridge positions count the residues as written; N and C are the ends. Square brackets hold non-standard residues; d marks the D form. Peptide text beside a SMILES is read from it. * marks the point of attachment. ξ: configuration not given here. ξHexahydromandeloyl = O=C(C(O)C1CCCCC1)*; ξβ3hGly(cHex) = NC(CC(=O)*)C1CCCCC1; X12 = CC(C)C[C@H](N)[C@H](O)C(=O)*; X22 = O=C(C[C@@H]1Cc2ccccc2CN1)*; Thr(3ξ) = CC(O)[C@H](N)C(=O)O; NH(2-ClPh) = Clc1ccccc1N*; Dab = NCC[C@H](N)C(=O)O; X3 = O=C([C@H]1CCCNC1)*; Dap = NC[C@H](N)C(=O)O; CO = O=C([*:1])[*:2]; Ahp = NCCCCCCC(=O)O

Legend:
HK-2 cell line = assay: In vitro renal cell toxicity assay (resazurin reduction); type: cell-based, human
P. aeruginosa ATCC 27853 = details: ATCC 27853, in vivo
Acinetobacter baumannii = assay: MIC, compound in combination with a second agent (broth microdilution); type: cell-based; details: 1:1 (wt:wt) combination with Rifampicin, MIC = total drug concentration; for MIC A. baumannii ATCC BAA-747: strain ATCC BAA-747; for MIC A. baumannii CCUG57249: strain CCUG57249; for MIC A. baumannii NCTC 13423: strain NCTC 13423
How it was run: (§1)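 Compound and second agent (e.g. rifampicin) were combined 1:1 w/w, compound weighed as its TFA or sulphate salt. Inoculum was a direct colony suspension from 18-24 hour Mueller-Hinton agar at 0.5 McFarland. MIC is the total drug concentration; lower of duplicates reported, modal value when tested repeatedly.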

Escherichia coli [1] = assay: as above; type: cell-based; details: 1:1 (wt:wt) combination with Rifampicin, MIC = total drug concentration; for MIC E. coli ATCC25922: strain ATCC25922; for MIC E. coli NCTC9001: strain NCTC9001
How it was run: as §1

Klebsiella pneumoniae [2] = assay: as above; type: cell-based; details: 1:1 (wt:wt) combination with Rifampicin, MIC = total drug concentration; for MIC K. pneumoniae ATCC 4352: strain ATCC 4352; for MIC K. pneumoniae ATCC-BAA-2146: strain ATCC-BAA-2146; for MIC K. pneumoniae CCUG-59348: strain CCUG-59348
How it was run: as §1

Pseudomonas aeruginosa [3] = assay: as above; type: cell-based; details: 1:1 (wt:wt) combination with Rifampicin, MIC = total drug concentration; for MIC P. aeruginosa ATCC 27853: strain ATCC 27853; for MIC P. aeruginosa ATCC-47: strain ATCC-47; for MIC P. aeruginosa CCUG 59626: strain CCUG 59626
How it was run: as §1

Escherichia coli [4] = assay: MIC, sole activity (no second agent); type: cell-based; details: in the absence of Rifampicin; strain ATCC25922
How it was run: (§2)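 Inoculum: direct colony suspension (18-24 h MH agar), 0.5 McFarland. Medium: cation-adjusted MHB. Up to 4 strains/species; reported relative to Polymyxin B.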

Klebsiella pneumoniae [5] = assay: MIC, sole activity (no second agent); type: cell-based; details: in the absence of Rifampicin; strain ATCC 4352
How it was run: as §2

Pseudomonas aeruginosa [6] = assay: MIC, sole activity (no second agent); type: cell-based; details: in the absence of Rifampicin; strain ATCC27853
How it was run: as §2

## CCCCCC(N)CC(=O)N[C@H](C(=O)N[C@@H](CCN)C(=O)N[C@H]1CCNC(=O)[C@H](C(C)O)NC(=O)[C@H](CCN)NC(=O)[C@H](CCN)NC(=O)[C@H](CC(C)C)NC(=O)[C@@H](Cc2ccccc2)NC(=O)[C@H](CCN)NC1=O)C(C)O (single isomer, unassigned; isomer 2) [Example A33, 3-(RS)-3-amino octanoyl polymyxin B nonapeptide. Isomer 2]
HK-2 cell line
  HK-2 IC50 rel to PMB: 9.7
  HK-2 relative to PMB: 9.7
  HK-2 toxicity (IC50) compared with PMB: significantly increased recorded IC50 values
P. aeruginosa ATCC 27853; 3.4 mg/kg, 24 h
  Log reduction from vehicle (CFU/g): 3.54 log CFU/g

## CC(C)C[C@@H]1NC(=O)[C@@H](Cc2ccccc2)NC(=O)[C@H](CCN)NC(=O)[C@@H](NC(=O)[C@H](CCN)NC(=O)[C@@H](NC(=O)CCCCCCN)C(C)O)CCNC(=O)[C@H](C(C)O)NC(=O)[C@H](CCN)NC(=O)[C@H](CCN)NC1=O (stereo partly drawn) [Example 13, 7-Aminoheptanoyl polymyxin B nonapeptide] (H-[Ahp][Thr(3ξ)][Dab][Dab][Dab][dF]L[Dab][Dab][Thr(3ξ)]; lactam 4-C)
Acinetobacter baumannii
  MIC A. baumannii ATCC BAA-747: ≤0.06 micrograms/mL
  MIC A. baumannii CCUG57249: 0.125 micrograms/mL
  MIC A. baumannii NCTC 13423: ≤0.06 micrograms/mL
Acinetobacter baumannii; strain NCTC 13424
  MIC A. baumannii NCTC 13424: 0.125 micrograms/mL
Escherichia coli [1]
  MIC E. coli ATCC25922: 0.125 micrograms/mL
  MIC E. coli NCTC9001: 0.5 micrograms/mL
Klebsiella pneumoniae [2]
  MIC K. pneumoniae ATCC 4352: 0.125 micrograms/mL
  MIC K. pneumoniae ATCC-BAA-2146: 0.5 micrograms/mL
  MIC K. pneumoniae CCUG-59348: 4 micrograms/mL
Klebsiella pneumoniae [2]; strain NCTC 13438
  MIC K. pneumoniae NCTC 13438: 1 micrograms/mL
Pseudomonas aeruginosa [3]
  MIC P. aeruginosa ATCC 27853: 0.25 micrograms/mL
  MIC P. aeruginosa ATCC-47: 0.25 micrograms/mL
  MIC P. aeruginosa CCUG 59626: 0.125 micrograms/mL
Escherichia coli [4]
  MIC E. coli ATCC25922: 1 micrograms/mL
Klebsiella pneumoniae [5]
  MIC K. pneumoniae ATCC 4352: 2 micrograms/mL
Pseudomonas aeruginosa [6]
  MIC P. aeruginosa ATCC 27853: 0.25 micrograms/mL
HK-2 cell line
  HK-2 relative to PMB: 14
  HK-2 toxicity (IC50) compared with PMB: significantly increased recorded IC50 values

## CC(C)C[C@@H]1NC(=O)[C@@H](Cc2ccccc2)NC(=O)[C@H](CCN)NC(=O)[C@@H](NC(=O)[C@H](CCN)NC(=O)[C@@H](NC(=O)[C@H](CCN)NC(=O)C(O)C2CCCCC2)C(C)O)CCNC(=O)[C@H](C(C)O)NC(=O)[C@H](CCN)NC(=O)[C@H](CCN)NC1=O (stereo partly drawn) [Example A3, 2-(RS)-(2-Hydroxy-2-cyclohexyl)ethanoyl polymyxin B decapeptide] (ξHexahydromandeloyl-[Dab][Thr(3ξ)][Dab][Dab][Dab][dF]L[Dab][Dab][Thr(3ξ)]; lactam 4-C)
HK-2 cell line
  HK-2 IC50 rel to PMB: 4
P. aeruginosa ATCC 27853; iv, 2 mg/kg, 9 h
  Log reduction from vehicle (CFU/g): 0.12 log CFU/g
P. aeruginosa ATCC 27853; iv, 4 mg/kg, 9 h
  Log reduction from vehicle (CFU/g): 3.34 log CFU/g

## CC(C)C[C@@H]1NC(=O)[C@@H](Cc2ccccc2)NC(=O)[C@H](CCN)NC(=O)[C@@H](NC(=O)[C@H](CCN)NC(=O)[C@@H](NC(=O)[C@H](CN)NC(=O)CC(N)C2CCCCC2)C(C)O)CCNC(=O)[C@H](C(C)O)NC(=O)[C@H](CCN)NC(=O)[C@H](CCN)NC1=O (stereo partly drawn) [Example A6, [3(R,S)-3-Amino-3-cyclohexanepropanoyl]-L-Dap-polymyxin B nonapeptide] ({ξβ3hGly(cHex)}-[Dap][Thr(3ξ)][Dab][Dab][Dab][dF]L[Dab][Dab][Thr(3ξ)]; lactam 4-C)
HK-2 cell line
  HK-2 IC50 rel to PMB: 3

## CC(C)C[C@@H]1NC(=O)[C@@H](Cc2ccccc2)NC(=O)[C@H](CCN)NC(=O)[C@@H](NC(=O)[C@H](CN)NC(=O)[C@@H](NC(=O)[C@H](CCN)NC(=O)[C@H]2CCCNC2)C(C)O)CCNC(=O)[C@H](C(C)O)NC(=O)[C@H](CCN)NC(=O)[C@H](CCN)NC1=O (stereo partly drawn) [Example A13, [(3S)-piperidine-3-carbonyl]-L-Dab-L-Thr-L-Dap polymyxin B heptapeptide] (X3-[Dab][Thr(3ξ)][Dap][Dab][Dab][dF]L[Dab][Dab][Thr(3ξ)]; lactam 4-C)
HK-2 cell line
  HK-2 IC50 rel to PMB: 10

## CC(C)C[C@@H]1NC(=O)[C@@H](Cc2ccccc2)NC(=O)[C@H](CCN)NC(=O)[C@@H](NC(=O)[C@H](CCN)NC(=O)[C@@H](NC(=O)C[C@@H]2Cc3ccccc3CN2)C(C)O)CCNC(=O)[C@H](C(C)O)NC(=O)[C@H](CCN)NC(=O)[C@H](CCN)NC1=O (stereo partly drawn) [Example A14, (S)-2-((1,2,3,4)-tetrahydroisoquinolin-3-yl) ethanoyl polymyxin B nonapeptide] (X22-[Thr(3ξ)][Dab][Dab][Dab][dF]L[Dab][Dab][Thr(3ξ)]; lactam 3-C)
HK-2 cell line
  HK-2 IC50 rel to PMB: 5.3

## CC(C)C[C@@H]1NC(=O)[C@@H](Cc2ccccc2)NC(=O)[C@H](CCN)NC(=O)[C@@H](NC(=O)[C@H](CN)NC(=O)[C@@H](NC(=O)[C@H](CCN)NC(=O)[C@@H](O)[C@@H](N)CC(C)C)C(C)O)CCNC(=O)[C@H](C(C)O)NC(=O)[C@H](CCN)NC(=O)[C@H](CCN)NC1=O (stereo partly drawn) [Example A17, [(2S,3S)-3-Amino-2-hydroxy-5-methylhexanoyl]-L-Dab-L-Thr-L-Dap polymyxin B heptapeptide] (X12-[Dab][Thr(3ξ)][Dap][Dab][Dab][dF]L[Dab][Dab][Thr(3ξ)]; lactam 4-C)
HK-2 cell line
  HK-2 IC50 rel to PMB: 5.5

## CC(C)C[C@@H]1NC(=O)[C@@H](Cc2ccccc2)NC(=O)[C@H](CCN)NC(=O)[C@@H](NC(=O)[C@H](CCN)NC(=O)[C@@H](NC(=O)[C@H](CCN)NC(=O)[C@H]2CCCNC2)C(C)O)CCNC(=O)[C@H](C(C)O)NC(=O)[C@H](CCN)NC(=O)[C@H](CCN)NC1=O (stereo partly drawn) [Example A22, (S)-Piperidine-3-carbonyl polymyxin B decapeptide] (X3-[Dab][Thr(3ξ)][Dab][Dab][Dab][dF]L[Dab][Dab][Thr(3ξ)]; lactam 4-C)
HK-2 cell line
  HK-2 IC50 rel to PMB: 7.4

## CC(C)C[C@@H]1NC(=O)[C@@H](Cc2ccccc2)NC(=O)[C@H](CCN)NC(=O)[C@@H](NC(=O)[C@H](CCN)NC(=O)[C@@H](NC(=O)[C@H](CCN)NC(=O)Nc2ccccc2Cl)C(C)O)CCNC(=O)[C@H](C(C)O)NC(=O)[C@H](CCN)NC(=O)[C@H](CCN)NC1=O (stereo partly drawn) [Example C2, CB-182, 804 sulphate salt, reference compound] ({NH(2-ClPh)-CO}-[Dab][Thr(3ξ)][Dab][Dab][Dab][dF]L[Dab][Dab][Thr(3ξ)]; lactam 4-C)
Acinetobacter baumannii
  MIC A. baumannii ATCC BAA-747: 0.25 micrograms/mL
  MIC A. baumannii CCUG57249: 0.5 micrograms/mL
  MIC A. baumannii NCTC 13423: 0.25 micrograms/mL
Escherichia coli [1]
  MIC E. coli ATCC25922: 0.125 micrograms/mL
  MIC E. coli NCTC9001: 0.25 micrograms/mL
Klebsiella pneumoniae [2]
  MIC K. pneumoniae ATCC 4352: 0.25 micrograms/mL
  MIC K. pneumoniae ATCC-BAA-2146: 0.5 micrograms/mL
  MIC K. pneumoniae CCUG-59348: 2 micrograms/mL
Pseudomonas aeruginosa [3]
  MIC P. aeruginosa ATCC 27853: 0.5 micrograms/mL
  MIC P. aeruginosa ATCC-47: 0.25 micrograms/mL
  MIC P. aeruginosa CCUG 59626: 0.125 micrograms/mL
Pseudomonas aeruginosa [3]; strain ATCC CRM-9027
  MIC P. aeruginosa ATCC CRM-9027: 0.5 micrograms/mL
HK-2 cell line; HK-2 cells, 24 h, resazurin reduction, mean values of up to 6 independent studies
  IC50 HK-2 cells: 22 µg/mL

## Octanoyl polymyxin B nonapeptide, sulfate salt [Example C6, reference compound]
HK-2 cell line
  HK-2 relative to PMB: 3.3
  HK-2 toxicity (IC50) compared with PMB: reduced toxicity against HK-2 compared with PMB
